Read-outs that look alike come from different tables or passages of the source.
Legend:
SMARCA4 = SMARCA4 (Homo sapiens, UniProt P51532); test: HiBiT assay for protein degradation, Hela SMARCA4-HiBiT cells (A series); format: cell-based; parameters: fuse HiBiT to the carboxy terminus of SMARCA2 (Promega CS302365) or SMARCA4 (Promega CS3023225); host or cells: HeLa (CRISPR/Cas9 HiBiT knock-in); conditions: Hela SMARCA4-HiBiT cells, 24 hours treatment; for DC50: read-out: SMARC A4 Hela HiBit DC50
Summary of the method: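 SMARCA4 degradation was measured in HeLa cells in which HiBiT had been knocked into the SMARCA4 carboxy terminus via CRISPR/Cas9 (Promega CS3023225). Cells were maintained in DMEM with FBS and penicillin-streptomycin. At the end of treatment, SMARCA4 levels were read by lytic HiBiT luminescence (Nano-Glo®, Promega N3050), and data were analyzed with GraphPad Prism.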

SMARCA2 = SMARCA2 (Homo sapiens, UniProt P51531); test: HiBiT assay for protein degradation, Hela SMARCA2-HiBiT cells (A series); format: cell-based; parameters: Hela cells were genetically modified via CRISPR/Cas9 to fuse HiBiT to the carboxy terminus of SMARCA2; host or cells: HeLa (CRISPR/Cas9 HiBiT knock-in); conditions: for DC50: read-out: SMARC A2 Hela HiBit DC50; for Dmax: read-out: SMARC A2 Hela HiBit Dmax (%);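 on SMARC A2 Hela HiBit Dmax (%): 24 h compound treatment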
Chain of SMARCA2 (P51531 whole entry): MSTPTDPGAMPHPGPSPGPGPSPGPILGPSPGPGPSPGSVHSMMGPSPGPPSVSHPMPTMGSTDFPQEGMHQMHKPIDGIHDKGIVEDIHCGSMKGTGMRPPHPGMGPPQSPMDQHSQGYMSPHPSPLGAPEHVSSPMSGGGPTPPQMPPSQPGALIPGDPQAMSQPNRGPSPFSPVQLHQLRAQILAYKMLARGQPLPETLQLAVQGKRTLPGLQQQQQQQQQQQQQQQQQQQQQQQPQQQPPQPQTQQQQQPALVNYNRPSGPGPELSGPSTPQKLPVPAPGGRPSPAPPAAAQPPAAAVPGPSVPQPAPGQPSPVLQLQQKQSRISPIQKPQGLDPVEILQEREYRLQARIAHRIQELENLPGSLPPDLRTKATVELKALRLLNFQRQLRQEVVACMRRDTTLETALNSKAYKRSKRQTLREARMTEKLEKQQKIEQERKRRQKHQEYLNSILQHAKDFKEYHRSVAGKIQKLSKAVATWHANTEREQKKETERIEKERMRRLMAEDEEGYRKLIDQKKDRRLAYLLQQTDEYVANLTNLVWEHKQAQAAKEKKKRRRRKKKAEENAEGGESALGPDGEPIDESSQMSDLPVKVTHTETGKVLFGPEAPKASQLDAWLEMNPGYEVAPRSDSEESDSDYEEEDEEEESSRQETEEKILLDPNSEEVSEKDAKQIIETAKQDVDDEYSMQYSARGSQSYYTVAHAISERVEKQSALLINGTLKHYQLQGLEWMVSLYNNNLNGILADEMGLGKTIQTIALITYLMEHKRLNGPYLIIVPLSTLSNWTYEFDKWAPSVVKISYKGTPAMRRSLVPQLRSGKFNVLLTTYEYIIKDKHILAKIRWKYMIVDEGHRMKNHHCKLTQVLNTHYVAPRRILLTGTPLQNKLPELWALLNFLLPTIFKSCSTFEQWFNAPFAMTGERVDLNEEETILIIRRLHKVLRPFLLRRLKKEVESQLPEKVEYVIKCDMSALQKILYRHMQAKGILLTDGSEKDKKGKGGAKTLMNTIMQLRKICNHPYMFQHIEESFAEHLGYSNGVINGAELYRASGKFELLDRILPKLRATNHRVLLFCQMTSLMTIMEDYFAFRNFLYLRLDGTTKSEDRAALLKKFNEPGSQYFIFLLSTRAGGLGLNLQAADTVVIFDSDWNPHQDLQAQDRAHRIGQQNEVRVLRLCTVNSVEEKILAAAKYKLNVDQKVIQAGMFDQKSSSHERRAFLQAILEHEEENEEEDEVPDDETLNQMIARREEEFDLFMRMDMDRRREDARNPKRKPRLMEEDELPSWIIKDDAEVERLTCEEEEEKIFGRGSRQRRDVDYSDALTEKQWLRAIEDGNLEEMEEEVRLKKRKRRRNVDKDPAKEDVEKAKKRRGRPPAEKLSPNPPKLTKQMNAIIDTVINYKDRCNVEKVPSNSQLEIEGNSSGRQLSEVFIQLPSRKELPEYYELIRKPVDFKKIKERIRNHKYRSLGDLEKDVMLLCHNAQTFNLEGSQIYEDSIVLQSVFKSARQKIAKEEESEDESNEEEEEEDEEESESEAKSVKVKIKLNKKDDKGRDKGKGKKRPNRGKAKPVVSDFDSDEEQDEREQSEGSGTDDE
Summary of the method: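 SMARCA2 degradation was measured in HeLa cells whose endogenous SMARCA2 carries a carboxy-terminal HiBiT tag introduced by CRISPR/Cas9 (Promega CS302365). Cells were maintained in DMEM with FBS and penicillin-streptomycin. SMARCA2 levels were read at the end of the experiment by Nano-Glo® HiBiT lytic luminescence (Promega N3050) and analyzed in GraphPad Prism.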

[1] = read-out: SMARC A4 Hela HiBit Dmax
[2] = Hela SMARCA2-HiBiT cells, 24 hours treatment

Chain of SMARCA4 (P51532 whole entry): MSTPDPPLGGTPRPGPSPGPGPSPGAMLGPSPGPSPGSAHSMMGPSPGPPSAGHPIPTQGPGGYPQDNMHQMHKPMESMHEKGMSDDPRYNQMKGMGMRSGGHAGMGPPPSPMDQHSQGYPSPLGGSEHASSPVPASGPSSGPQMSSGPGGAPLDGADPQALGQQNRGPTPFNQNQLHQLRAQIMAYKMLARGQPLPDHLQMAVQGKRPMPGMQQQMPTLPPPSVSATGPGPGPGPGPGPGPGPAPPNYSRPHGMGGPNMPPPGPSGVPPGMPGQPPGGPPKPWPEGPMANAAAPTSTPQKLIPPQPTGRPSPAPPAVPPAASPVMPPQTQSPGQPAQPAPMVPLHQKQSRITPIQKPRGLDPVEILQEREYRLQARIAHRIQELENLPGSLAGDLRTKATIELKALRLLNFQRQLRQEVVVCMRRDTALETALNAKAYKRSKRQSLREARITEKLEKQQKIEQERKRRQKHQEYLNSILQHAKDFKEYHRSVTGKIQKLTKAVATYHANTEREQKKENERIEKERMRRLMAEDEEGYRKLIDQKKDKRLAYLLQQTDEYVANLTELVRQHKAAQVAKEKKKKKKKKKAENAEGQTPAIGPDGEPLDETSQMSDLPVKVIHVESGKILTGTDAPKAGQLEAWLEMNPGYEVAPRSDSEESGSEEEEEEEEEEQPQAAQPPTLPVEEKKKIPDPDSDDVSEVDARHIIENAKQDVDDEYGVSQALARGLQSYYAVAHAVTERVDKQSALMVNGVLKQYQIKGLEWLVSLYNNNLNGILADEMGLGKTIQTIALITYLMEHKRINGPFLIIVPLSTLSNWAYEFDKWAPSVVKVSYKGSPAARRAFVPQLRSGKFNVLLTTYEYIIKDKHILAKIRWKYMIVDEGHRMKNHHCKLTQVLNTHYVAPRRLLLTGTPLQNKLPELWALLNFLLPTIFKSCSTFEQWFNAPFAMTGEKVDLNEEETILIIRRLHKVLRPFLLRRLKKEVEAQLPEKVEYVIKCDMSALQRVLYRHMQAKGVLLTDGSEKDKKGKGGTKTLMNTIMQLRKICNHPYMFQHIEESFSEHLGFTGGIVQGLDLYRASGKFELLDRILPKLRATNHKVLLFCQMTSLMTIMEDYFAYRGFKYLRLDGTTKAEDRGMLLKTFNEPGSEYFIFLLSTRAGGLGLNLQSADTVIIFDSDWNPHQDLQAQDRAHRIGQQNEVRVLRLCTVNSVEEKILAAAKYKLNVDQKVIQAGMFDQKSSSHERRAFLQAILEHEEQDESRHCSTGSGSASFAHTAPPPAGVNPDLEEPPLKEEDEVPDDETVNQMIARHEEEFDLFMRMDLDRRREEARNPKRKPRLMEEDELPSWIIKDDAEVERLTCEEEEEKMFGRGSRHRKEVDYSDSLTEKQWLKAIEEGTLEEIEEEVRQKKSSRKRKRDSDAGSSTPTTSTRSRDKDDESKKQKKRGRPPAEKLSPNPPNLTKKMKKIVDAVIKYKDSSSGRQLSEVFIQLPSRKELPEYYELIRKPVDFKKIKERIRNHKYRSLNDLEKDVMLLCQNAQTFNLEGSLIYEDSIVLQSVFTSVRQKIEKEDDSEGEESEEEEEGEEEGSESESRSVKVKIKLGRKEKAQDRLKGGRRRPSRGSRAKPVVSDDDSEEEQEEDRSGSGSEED

Row | DC50 (SMARCA4) [nM] | Dmax (SMARCA4; [1]) [%] | DC50 (SMARCA2; [2]) [nM] | Dmax (SMARCA2; [2]) [%] | SMARC A4 Hela HiBit DC50(nM) (SMARCA4) | Dmax (SMARCA4; read-out: SMARC A4 Hela HiBit Dmax(%)) [%] | Compound | Dmax (SMARCA2; HeLa) [%]
1 | > 1000 | 50 to 69 | 10 to 100 | > 90 |  |  | Cc1ncsc1-c1ccc([C@H](C)NC(=O)[C@@H]2C[C@@H](O)CN2C(=O)[C@H](C2CCN(C)CC2)n2cc([C@H]3CC[C@H](CN4CCC(c5ccc6c(c5)-n5c(nc(=O)c7c(Cl)cccc75)C65CCCCC5)CC4)CC3)nn2)cc1 [Compound A110, (2S,4R)-1-((S)-2-(4-((1r,4S)-4-((4-(4′-chloro-5′-oxo-5′H-spiro[cyclohexane-1,7′-indolo[1,2-a]quinazolin]-10′-yl)piperidin-1-yl)methyl)cyclohexyl)-1H-1,2,3-triazol-1-yl)-2-(1-methylpiperidin-4-yl)acetyl)-4-hydroxy-N—((S)-1-(4-(4-methylthiazol-5-yl)phenyl)ethyl)pyrrolidine-2-carboxamide] | 
2 | > 1000 | < 50 | 100 to 1000 | 50 to 69 |  |  | Cc1ncsc1-c1ccc([C@H](CO)NC(=O)[C@@H]2C[C@@H](O)CN2C(=O)[C@H](C2CCCCC2)n2cc(-c3ccc(CN4CCC(c5ccc6c(c5)-n5c(nc(=O)c7c(Br)cccc75)C65CCCCC5)CC4)cc3)nn2)cc1 [Compound A129] | 
3 | 10 to 100 | 50 to 69 | < 10 | > 90 |  |  | Cc1ncsc1-c1ccc([C@H](CN2CCN(C)CC2)NC(=O)[C@@H]2C[C@@H](O)CN2C(=O)[C@@H](n2cc([C@H]3CC[C@H](CN4CCC(c5ccc6c(c5)-n5c(nc(=O)c7c(Cl)cccc75)C65CCCCC5)CC4)CC3)nn2)C(C)(C)C)cc1 [Compound A85, (2S,4R)-1-((S)-2-(4-((1r,4S)-4-((4-(4′-chloro-5′-oxo-5′H-spiro[cyclohexane-1,7′-indolo[1,2-a]quinazolin]-10′-yl)piperidin-1-yl)methyl)cyclohexyl)-1H-1,2,3-triazol-1-yl)-3,3-dimethylbutanoyl)-4-hydroxy-N—((R)-2-(4-methylpiperazin-1-yl)-1-(4-(4-methylthiazol-5-yl)phenyl)ethyl)pyrrolidine-2-carboxamide] | 
4 | 10 to 100 | 70 to 90 | 10 to 100 | > 90 |  |  | Cc1ncsc1-c1ccc([C@H](CN2CCOCC2)NC(=O)[C@@H]2C[C@@H](O)CN2C(=O)[C@@H](n2cc([C@H]3C[C@H](CN4CC5(CCC(c6ccc7c(c6)-n6c(nc(=O)c8c(Cl)cccc86)C76CCCCC6)CC5)C4)C3)nn2)C(C)(C)C)cc1 [Compound A88, (2S,4R)-1-((S)-2-(4-((1r,3S)-3-((7-(4′-chloro-5′-oxo-5′H-spiro[cyclohexane-1,7′-indolo[1,2-a]quinazolin]-10′-yl)-2-azaspiro[3.5]nonan-2-yl)methyl)cyclobutyl)-1H-1,2,3-triazol-1-yl)-3,3-dimethylbutanoyl)-4-hydroxy-N—((R)-1-(4-(4-methylthiazol-5-yl)phenyl)-2-morpholinoethyl)pyrrolidine-2-carboxamide] | 
5 |  | 50 to 69 | < 10 | > 90 | No fit |  | Cc1ncsc1-c1ccc([C@H](C)NC(=O)[C@@H]2C[C@@H](O)CN2C(=O)[C@H](C2CCOCC2)n2cc([C@H]3CC[C@H](CN4CCC(c5ccc6c(c5)-n5c(nc(=O)c7c(Cl)cccc75)C65CCCCC5)CC4)CC3)nn2)cc1 [Compound A120, (2S,4R)-1-((S)-2-(4-((1r,4S)-4-((4-(4′-chloro-5′-oxo-5′H-spiro[cyclohexane-1,7′-indolo[1,2-a]quinazolin]-10′-yl)piperidin-1-yl)methyl)cyclohexyl)-1H-1,2,3-triazol-1-yl)-2-(tetrahydro-2H-pyran-4-yl)acetyl)-4-hydroxy-N—((S)-1-(4-(4-methylthiazol-5-yl)phenyl)ethyl)pyrrolidine-2-carboxamide] | 
6 | > 1000 | 50 to 69 | < 10 | > 90 |  |  | Cc1ncsc1-c1ccc([C@H](CN2CCOCC2)NC(=O)[C@@H]2C[C@@H](O)CN2C(=O)[C@@H](n2cc([C@H]3CC[C@H](CN4CCC(c5ccc6c(c5)-n5c(nc(=O)c7c(Cl)cccc75)C6(C)C)CC4)CC3)nn2)C(C)(C)O)cc1 [Compound A159, (2S,4R)-1-((S)-2-(4-((1r,4S)-4-((4-(4-chloro-7,7-dimethyl-5-oxo-5,7-dihydroindolo[1,2-a]quinazolin-10-yl)piperidin-1-yl)methyl)cyclohexyl)-1H-1,2,3-triazol-1-yl)-3-hydroxy-3-methylbutanoyl)-4-hydroxy-N-((R)-1-(4-(4-methylthiazol-5-yl)phenyl)-2-morpholinoethyl)pyrrolidine-2-carboxamide] | 
7 | > 1000 | 50 to 69 | < 10 | > 90 |  |  | COC(=O)C[C@H](NC(=O)[C@@H]1C[C@@H](O)CN1C(=O)[C@@H](n1cc([C@H]2CC[C@H](CN3CCC(c4ccc5c(c4)-n4c(nc(=O)c6c(Cl)cccc64)C54CCCCC4)CC3)CC2)nn1)C(C)(C)C)c1ccc(-c2scnc2C)cc1 [Compound A145, methyl(S)-3-((2S,4R)-1-((S)-2-(4-((1r,4S)-4-((4-(4′-chloro-5′-oxo-5′H-spiro[cyclohexane-1,7′-indolo[1,2-a]quinazolin]-10′-yl)piperidin-1-yl)methyl)cyclohexyl)-1H-1,2,3-triazol-1-yl)-3,3-dimethylbutanoyl)-4-hydroxypyrrolidine-2-carboxamido)-3-(4-(4-methylthiazol-5-yl)phenyl) propanoate] | 
8 |  |  | < 100 | > 90 | No Fit | < 50 | Cc1ncsc1-c1ccc([C@H](CN(C)C)NC(=O)[C@@H]2C[C@@H](O)CN2C(=O)[C@@H](NC(=O)[C@H]2CC[C@H](CN3CCC(c4ccc5c(c4)C4(CCCCC4)c4nc(=O)c6c(Br)cccc6n4-5)CC3)CC2)C(C)(C)C)cc1 [Compound A15] | 
9 | > 1000 | < 50 | < 10 | > 90 |  |  | CC(C)(C)[C@@H](C(=O)N1C[C@H](O)C[C@H]1C(=O)N[C@@H](CN1CCOCC1)c1ccc(-c2ccccn2)cc1)n1cc([C@H]2CC[C@H](CN3CCC(c4ccc5c(c4)-n4c(nc(=O)c6c(Cl)cccc64)C54CCCCC4)CC3)CC2)nn1 [Compound A173, (2S,4R)-1-((S)-2-(4-((1r,4S)-4-((4-(4′-chloro-5′-oxo-5′H-spiro[cyclohexane-1,7′-indolo[1,2-a]quinazolin]-10′-yl)piperidin-1-yl)methyl)cyclohexyl)-1H-1,2,3-triazol-1-yl)-3,3-dimethylbutanoyl)-4-hydroxy-N—((R)-2-morpholino-1-(4-(pyridin-2-yl)phenyl)ethyl)pyrrolidine-2-carboxamide] | 
10 | > 1000 | < 50 | 100 to 1000 | 50 to 69 |  |  | Cc1ncsc1-c1ccc([C@H](CN2CCOCC2)NC(=O)[C@@H]2C[C@@H](O)CN2C(=O)[C@H](C2CCCCC2)n2cc(-c3ccc(CN4CCC(c5ccc6c(c5)-n5c(nc(=O)c7c(Br)cccc75)C65CCCCC5)CC4)cc3)nn2)cc1 [Compound A128, (2S,4R)-1-((S)-2-(4-(4-((4-(4′-bromo-5′-oxo-5′H-spiro[cyclohexane-1,7′-indolo[1,2-a]quinazolin]-10′-yl)piperidin-1-yl)methyl)phenyl)-1H-1,2,3-triazol-1-yl)-2-cyclohexylacetyl)-4-hydroxy-N—((R)-1-(4-(4-methylthiazol-5-yl)phenyl)-2-morpholinoethyl)pyrrolidine-2-carboxamide] | 

Row | Compound | DC50 (SMARCA4) [nM] | Dmax (SMARCA4; [1]) [%] | DC50 (SMARCA2; [2]) [nM] | Dmax (SMARCA2; [2]) [%] | SMARC A4 Hela HiBit DC50(nM) (SMARCA4) | Dmax (SMARCA4; read-out: SMARC A4 Hela HiBit Dmax(%)) [%] | Dmax (SMARCA2; HeLa) [%]
11 | Cc1ncsc1-c1ccc([C@H](C)NC(=O)[C@@H]2C[C@@H](O)CN2C(=O)[C@@H](n2cc([C@H]3CC[C@H](CN4CCC(c5ccc6c(n5)-n5c(nc(=O)c7c(Br)cccc75)C65CCCCC5)CC4)CC3)nn2)C(C)(C)C)cc1 [Compound A50, (2S,4R)-1-((S)-2-(4-((1r,4S)-4-((4-(4′-bromo-5′-oxo-5′H-spiro[cyclohexane-1,7′-pyrido[3′,2′: 4,5]pyrrolo[1,2-a]quinazolin]-10′-yl)piperidin-1-yl)methyl)cyclohexyl)-1H-1,2,3-triazol-1-yl)-3,3-dimethylbutanoyl)-4-hydroxy-N—((S)-1-(4-(4-methylthiazol-5-yl)phenyl)ethyl)pyrrolidine-2-carboxamide] |  |  | < 100 |  | No Fit |  | > 90

— patent US20260092071A1, “COMPOUNDS AND COMPOSITIONS AS SMARCA2/4 DEGRADERS AND USES THEREOF” (REGENTS OF THE UNIVERSITY OF MICHIGAN, priority 2022, published 2026)
